Measurements: patent US20110052676A1, “Composition For Delaying Cellular Senescence” (priority 2009, published 2011)

Key:
Assay type in all cases: cell-based, Human
[1] = tested on: intrinsically-aged dermal fibroblasts; experiment: Delayed senescence in intrinsically-aged dermal fibroblasts measured by SA-β-Gal staining; conditions: for expression of SA-β-Gal (number of stained cells) vs untreated cells: after 18 population doublings, FIG. 1
Description: The peptide isolated from Example 2 was employed to examine the ability of the peptide to delay senescence in dermal fibroblasts aged through a series of population doublings.
Human neonatal fibroblasts were obtained after primary culture (passage 1) and seeded into a set of T-75 flasks in 3 ml/flask of Fibroblast Growth Media (FGM) and grown at 37±2° C. and 5±1% CO2. The cells were expanded through 6 passages (one passage was defined as growing the cells until the flask was confluent and then splitting the cells 1:2, thus one passage was roughly equal to one population doubling). After the 6th passage, the fibroblasts were split into different treatment groups and treated with the various test materials through passage 18. At passage 18 a portion of the fibroblasts were used to assay changes in Senescence Associated-β-Galactosidase (SA-β-Gal), while the remaining fibroblasts were cultured for an additional week (approximately 2 additional passages) in the absence of test materials.
Prior to staining, the fibroblasts were washed once with PBS and then fixed for approximately 6 minutes in fixing solution (2% formaldehyde and 0.2% glutaraldehyde in PBS). After fixing, the cells were washed three times with PBS, followed by the addition of the staining solution (150 mM NaCl, 2 mM MgCl2, 40 mM citric acid (pH 6.0), 12 mM NaPO3, 5 mM potassium ferrocyanide, 5 mM potassium ferricyanide, and […] X-gal). The cells were then incubated at 37° C. overnight in a non-CO2 incubator. On the following day the staining solution was removed and replaced with PBS. The cells were then photographed microscopically and the number of stained cells (SA-β-Gal positive) in each field was counted.

[2] = tested on: ATM; experiment: H2O2 stress-induced premature senescence in epidermal keratinocytes, ATM expression (ELISA); conditions: 1% treatment level, after 150 μM H2O2 for two hours, FIG. 2
Description: (§1) Human epidermal keratinocytes were seeded into culture flasks and grown at 37±2° C. and 5±1% CO2 using serum free Epilife media supplemented as recommended by the manufacturer. When a sufficient number of cells had been grown they were transferred to 96-well plates and cultured for a minimum of 24 hours to allow the cells to adhere to the well plates. After the initial 24-hour incubation, the media was changed to remove any non-adherent cells and the remaining cells were cultured until confluent, with a media change every 48 to 72 hours as needed.
(§2) Premature cellular senescence was induced by treating the keratinocytes with H2O2. For the H2O2 treatment, the cell culture media was replaced with phosphate buffered saline (PBS) supplemented with 150 μM of H2O2 . The cells were incubated in the H2O2 solution for two hours, after which they were washed once with PBS and then fresh media, either with or without test material, was applied to the cells. At these levels, the H2O2 treatment was not observed to have an impact on cell viability.
(§3) Relative changes in the amount of ATM and p53 expression were determined in the keratinocytes using ELISA based methods. […] After a sufficient level of color development was achieved the plate was read at 460 nm using a plate reader.

[3] = tested on: p53; experiment: H2O2 stress-induced premature senescence in epidermal keratinocytes, p53 expression (ELISA); conditions: 1% treatment level, after 150 μM H2O2 for two hours, FIG. 3
Description: as §1, §2, §3

[4] = tested on: dermal papillae cells; experiment: UV stress-induced premature senescence in dermal papillae cells measured by SA-β-Gal staining; conditions: 20 mJ/cm^2 UVB, 48 hours, FIG. 4
Description: Human dermal papillae cells were seeded into 12 well plates in Dermal Papillae Growth Medium (DPGM) and grown at 37±2° C. and 5±1% CO2 until confluent with a media change every 48 to 72 hours as needed. Once the cells were confluent, the cell culture media was replaced with PBS and the cells were irradiated with 20 mJ/cm^2 UVB. After the UVB irradiation, the PBS was removed and replaced with cell culture media supplemented with the various test materials. Non-supplemented DPGM was used as the untreated control. One set of cells was not exposed to UVB and served as the non-UVB treated control. After the addition of the media, sets of cells were cultured for 48 hours. At the end of the incubation period the cells were obtained and assayed for changes in SA-β-Gal activity.
In a second set of studies, dermal papillae cells were grown and plated as described above. […] This was done to determine the effects of the test materials alone on the markers measured in this study.
After the 48 hour incubation, the cells were washed with PBS and then briefly fixed for 6-7 minutes in fixation buffer (2% formaldehyde and 0.2% glutaraldehyde in PBS). […] On the following day, the wells were examined microscopically and photographed so that the number of stained cells per field could be quantified. The number of positive staining cells in each field was counted. […]

[5] = tested on: Ogg1; experiment: Cellular expression of DNA repair enzyme Ogg1 in fibroblasts (microfiltration blot, immunodetection); conditions: treatment level 0.1%, 24 hours, FIG. 5
Description: Human fibroblasts were seeded into culture flasks and grown at 37±2° C. and 5±1% CO2 using FGM. When a sufficient number of cells had been grown they were transferred to 24-well plates and cultured for a minimum of 24 hours to allow the cells to adhere to the well plates. The cells were then grown until confluent, with a media change every 48 to 72 hours.
The test materials were prepared in FGM. The media was then removed from the culture plates and replaced with 0.5 ml of media supplemented with test material, with each treatment being tested in triplicate. FGM alone served as the untreated control. After the application of the cell culture media, the plates were incubated for 24 hours at 37±2° C. and 5±1% CO2. At the end of the incubation period the culture media was removed and the cells were washed once with phosphate buffered saline. […] The protein concentration of the supernatant was determined using the BCA Protein Assay. […]
After the final wash, the membrane was placed into a BioRad Molecular Imager FX and scanned using an excitation laser and emission filter combination appropriate for the fluorophore. Images produced by the scanner were then analyzed using ImageJ image analysis software.
Fluorescence intensity measurements were expressed in Relative Fluorescence Units (RFU). Mean RFU values for each treatment were then calculated and treatments were compared using a one way ANOVA.

For `CN[C@@H](Cc1ccccc1)C(=O)N[C@H](C(=O)N[C@@H](C)C(=O)N1CCC[C@H]1C(=O)N[C@@H](Cc1ccccc1)C(=O)N1CCC[C@H]1C(=O)O)C(C)C` [Hexapeptide, Phe-Val-Ala-Pro-Phe-Pro], the “expression of SA-β-Gal (number of stained cells) vs untreated cells” value ([1]; 0.5% Hexapeptide treatment) was “untreated cells was statistically higher than that seen at 0.5 or 1.0% Hexapeptide treatment”, the “expression of SA-β-Gal (number of stained cells) vs untreated cells” value ([1]; 1.0% Hexapeptide treatment) was “untreated cells was statistically higher than that seen at 0.5 or 1.0% Hexapeptide treatment” and the “expression of SA-β-Gal one week after removal of the Hexapeptide” value ([1]; 1% treatment) was “increase but not yet back to normal”. The “expression of SA-β-Gal one week after removal of the Hexapeptide” value ([1]; all treatments except the 1% treatment) was “returns to normal”, the “expression of ATM protein vs prematurely senescent untreated keratinocytes” value [2] was “statistically delay senescence” and the “expression of p53 protein vs prematurely senescent untreated keratinocytes” value [3] was “statistically delay senescence”. For the same molecule, the “SA-β-Gal expression (number of stained cells) after UV” value ([4]; 0.5% Hexapeptide) was “statistically significant decrease”, the “SA-β-Gal expression (number of stained cells) after UV” value ([4]; 1.0% Hexapeptide) was “statistically significant decrease” and the “expression of Ogg1 (RFU) vs untreated control” value [5] was “statistically increase expression of Ogg1”.
